According to the supplement of paper PMC12463676, “Small-molecule dissolution of stress granules by redox modulation benefits ALS models” (Nature Chemical Biology, 2025):
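Note: each temperature applied for 3 min, abundance score taken as mean log2 fold change at the two lowest temperatures, z-score obtained by mean subtraction and division by SD.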

Sequence of UniProt P30825 (P30825 whole entry): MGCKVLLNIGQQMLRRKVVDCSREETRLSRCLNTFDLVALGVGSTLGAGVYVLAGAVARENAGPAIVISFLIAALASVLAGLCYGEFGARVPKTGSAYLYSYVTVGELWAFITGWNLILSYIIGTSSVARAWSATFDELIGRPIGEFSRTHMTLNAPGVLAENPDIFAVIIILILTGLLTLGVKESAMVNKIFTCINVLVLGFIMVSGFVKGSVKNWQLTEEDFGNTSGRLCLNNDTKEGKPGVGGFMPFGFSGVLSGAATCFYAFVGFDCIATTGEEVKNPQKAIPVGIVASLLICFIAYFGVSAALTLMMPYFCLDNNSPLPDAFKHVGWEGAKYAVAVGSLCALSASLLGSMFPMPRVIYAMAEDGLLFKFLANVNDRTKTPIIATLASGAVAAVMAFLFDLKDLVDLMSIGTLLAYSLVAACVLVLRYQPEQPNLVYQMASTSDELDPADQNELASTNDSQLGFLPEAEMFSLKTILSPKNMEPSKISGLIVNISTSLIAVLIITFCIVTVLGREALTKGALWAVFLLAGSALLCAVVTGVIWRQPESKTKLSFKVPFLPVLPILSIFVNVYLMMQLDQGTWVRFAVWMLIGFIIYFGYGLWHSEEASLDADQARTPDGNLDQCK
Sequence of UniProt P60174 (P60174 whole entry): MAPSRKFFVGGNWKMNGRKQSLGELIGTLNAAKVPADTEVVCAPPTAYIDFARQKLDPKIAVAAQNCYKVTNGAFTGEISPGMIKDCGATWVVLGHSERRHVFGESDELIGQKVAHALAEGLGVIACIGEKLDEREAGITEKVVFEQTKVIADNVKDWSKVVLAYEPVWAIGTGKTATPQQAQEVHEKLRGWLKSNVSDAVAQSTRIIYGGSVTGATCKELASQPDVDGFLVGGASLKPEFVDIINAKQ
Sequence of UniProt Q04917 (Q04917 whole entry): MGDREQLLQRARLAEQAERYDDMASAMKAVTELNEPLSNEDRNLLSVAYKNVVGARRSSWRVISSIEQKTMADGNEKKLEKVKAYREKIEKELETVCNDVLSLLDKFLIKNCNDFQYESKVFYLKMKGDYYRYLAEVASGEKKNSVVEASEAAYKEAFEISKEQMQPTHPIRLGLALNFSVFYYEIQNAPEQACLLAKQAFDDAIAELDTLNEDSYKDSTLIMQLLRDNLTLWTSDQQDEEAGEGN
Sequence of UniProt P20339 (P20339 whole entry): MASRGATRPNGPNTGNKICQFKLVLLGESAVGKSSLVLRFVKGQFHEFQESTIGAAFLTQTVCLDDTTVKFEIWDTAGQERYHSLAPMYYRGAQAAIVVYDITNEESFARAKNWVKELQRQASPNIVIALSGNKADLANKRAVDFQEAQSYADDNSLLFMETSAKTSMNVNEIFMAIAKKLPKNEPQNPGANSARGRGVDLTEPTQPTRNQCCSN
Sequence of UniProt Q9P2N2 (Q9P2N2 whole entry): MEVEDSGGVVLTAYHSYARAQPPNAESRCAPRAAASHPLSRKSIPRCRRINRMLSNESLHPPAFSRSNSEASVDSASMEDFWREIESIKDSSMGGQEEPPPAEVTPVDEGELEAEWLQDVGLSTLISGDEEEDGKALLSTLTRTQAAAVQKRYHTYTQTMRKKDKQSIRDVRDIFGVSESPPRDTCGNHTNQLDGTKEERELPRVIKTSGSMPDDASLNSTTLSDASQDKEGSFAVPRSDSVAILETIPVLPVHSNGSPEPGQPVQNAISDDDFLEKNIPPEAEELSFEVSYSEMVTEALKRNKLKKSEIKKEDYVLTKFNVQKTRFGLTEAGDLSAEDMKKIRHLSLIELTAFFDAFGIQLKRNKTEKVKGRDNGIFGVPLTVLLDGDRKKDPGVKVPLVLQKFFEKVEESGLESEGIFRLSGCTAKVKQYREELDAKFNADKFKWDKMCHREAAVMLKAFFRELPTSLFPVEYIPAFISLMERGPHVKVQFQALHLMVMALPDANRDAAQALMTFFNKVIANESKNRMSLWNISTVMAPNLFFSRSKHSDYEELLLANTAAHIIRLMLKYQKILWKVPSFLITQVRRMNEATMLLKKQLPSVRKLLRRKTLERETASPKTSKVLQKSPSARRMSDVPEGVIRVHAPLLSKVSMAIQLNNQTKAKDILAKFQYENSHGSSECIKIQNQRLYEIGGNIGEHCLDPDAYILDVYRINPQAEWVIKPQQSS
Sequence of UniProt O75787 (O75787 whole entry): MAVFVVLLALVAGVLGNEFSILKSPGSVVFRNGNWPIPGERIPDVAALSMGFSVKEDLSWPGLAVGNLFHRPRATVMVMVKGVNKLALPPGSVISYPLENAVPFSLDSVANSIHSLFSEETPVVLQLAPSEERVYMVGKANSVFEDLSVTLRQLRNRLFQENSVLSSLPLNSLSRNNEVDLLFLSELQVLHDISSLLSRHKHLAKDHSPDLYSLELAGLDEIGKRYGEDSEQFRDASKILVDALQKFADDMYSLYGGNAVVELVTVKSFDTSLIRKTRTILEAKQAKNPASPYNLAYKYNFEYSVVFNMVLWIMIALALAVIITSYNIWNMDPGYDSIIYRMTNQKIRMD
Sequence of UniProt Q9BZH6 (Q9BZH6 whole entry): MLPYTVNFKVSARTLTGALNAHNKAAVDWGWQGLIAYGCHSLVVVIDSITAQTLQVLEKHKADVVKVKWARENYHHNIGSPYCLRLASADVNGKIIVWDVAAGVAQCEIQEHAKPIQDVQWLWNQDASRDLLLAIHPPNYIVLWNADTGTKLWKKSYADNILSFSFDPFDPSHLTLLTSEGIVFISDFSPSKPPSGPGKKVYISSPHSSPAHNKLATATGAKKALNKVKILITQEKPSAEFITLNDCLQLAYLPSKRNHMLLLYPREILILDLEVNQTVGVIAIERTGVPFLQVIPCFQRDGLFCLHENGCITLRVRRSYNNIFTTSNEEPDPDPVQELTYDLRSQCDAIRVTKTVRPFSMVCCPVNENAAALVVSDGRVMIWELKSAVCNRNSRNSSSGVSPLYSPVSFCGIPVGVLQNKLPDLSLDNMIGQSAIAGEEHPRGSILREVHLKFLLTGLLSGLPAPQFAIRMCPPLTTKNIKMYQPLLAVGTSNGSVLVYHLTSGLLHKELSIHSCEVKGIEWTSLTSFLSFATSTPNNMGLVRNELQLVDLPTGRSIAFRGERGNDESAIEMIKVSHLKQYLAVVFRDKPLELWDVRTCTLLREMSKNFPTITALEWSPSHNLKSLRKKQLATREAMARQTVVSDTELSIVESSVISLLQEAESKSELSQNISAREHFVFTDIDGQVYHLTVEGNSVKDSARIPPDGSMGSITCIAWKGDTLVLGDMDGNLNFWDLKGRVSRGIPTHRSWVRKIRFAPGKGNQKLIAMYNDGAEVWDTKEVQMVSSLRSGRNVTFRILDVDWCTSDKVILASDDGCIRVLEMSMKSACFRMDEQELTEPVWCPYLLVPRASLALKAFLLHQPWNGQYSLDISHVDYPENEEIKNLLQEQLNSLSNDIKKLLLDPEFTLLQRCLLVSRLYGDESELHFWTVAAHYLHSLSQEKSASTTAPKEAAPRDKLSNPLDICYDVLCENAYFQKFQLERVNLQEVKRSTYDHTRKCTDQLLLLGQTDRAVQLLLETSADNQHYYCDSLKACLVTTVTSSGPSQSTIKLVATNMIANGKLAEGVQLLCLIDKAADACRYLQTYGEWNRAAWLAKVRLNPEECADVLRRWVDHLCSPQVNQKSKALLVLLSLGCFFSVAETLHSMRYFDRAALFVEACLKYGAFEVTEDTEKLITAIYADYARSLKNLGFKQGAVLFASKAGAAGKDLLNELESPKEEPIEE
Sequence of UniProt P41091 (P41091 whole entry): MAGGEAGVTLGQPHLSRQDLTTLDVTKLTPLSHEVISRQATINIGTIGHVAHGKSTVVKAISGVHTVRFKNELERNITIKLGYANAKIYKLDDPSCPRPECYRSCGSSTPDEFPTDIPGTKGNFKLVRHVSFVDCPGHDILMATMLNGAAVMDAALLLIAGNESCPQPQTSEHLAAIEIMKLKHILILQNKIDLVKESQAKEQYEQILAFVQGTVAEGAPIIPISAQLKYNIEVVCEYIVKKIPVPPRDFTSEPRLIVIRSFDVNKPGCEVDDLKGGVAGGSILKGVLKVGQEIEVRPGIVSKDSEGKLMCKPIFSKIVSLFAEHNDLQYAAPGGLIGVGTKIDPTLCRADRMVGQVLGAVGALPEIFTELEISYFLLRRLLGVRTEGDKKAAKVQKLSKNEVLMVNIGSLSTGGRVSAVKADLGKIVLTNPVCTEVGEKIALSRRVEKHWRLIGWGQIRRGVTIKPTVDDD
Sequence of UniProt Q9UI30 (Q9UI30 whole entry): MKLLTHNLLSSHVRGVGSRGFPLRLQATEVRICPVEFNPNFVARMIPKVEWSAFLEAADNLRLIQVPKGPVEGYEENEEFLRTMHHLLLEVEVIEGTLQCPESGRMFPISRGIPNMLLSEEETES
Sequence of UniProt P32780 (P32780 whole entry): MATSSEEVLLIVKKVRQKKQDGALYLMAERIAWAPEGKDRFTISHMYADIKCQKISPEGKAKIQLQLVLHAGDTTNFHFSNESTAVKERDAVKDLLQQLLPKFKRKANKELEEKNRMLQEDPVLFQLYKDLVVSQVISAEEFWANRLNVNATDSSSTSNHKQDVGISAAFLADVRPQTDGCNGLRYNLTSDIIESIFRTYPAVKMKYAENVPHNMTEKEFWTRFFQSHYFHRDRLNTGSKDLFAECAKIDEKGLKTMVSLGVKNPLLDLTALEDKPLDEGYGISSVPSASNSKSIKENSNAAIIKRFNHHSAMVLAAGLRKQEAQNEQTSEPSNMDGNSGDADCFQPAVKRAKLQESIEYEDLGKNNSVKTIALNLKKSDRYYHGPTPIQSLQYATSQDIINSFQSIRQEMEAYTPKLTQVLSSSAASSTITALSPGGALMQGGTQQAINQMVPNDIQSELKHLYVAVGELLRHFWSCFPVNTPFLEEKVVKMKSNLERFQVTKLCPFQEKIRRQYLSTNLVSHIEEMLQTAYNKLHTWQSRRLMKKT
Sequence of UniProt P10599 (P10599 whole entry): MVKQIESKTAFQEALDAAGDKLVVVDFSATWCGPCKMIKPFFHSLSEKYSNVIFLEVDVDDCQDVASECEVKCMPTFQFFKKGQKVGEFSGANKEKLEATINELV

These targets were tested with O=[As]([O-])(O)O.[K+] [potassium arsenate] (assay: thermal stability z-score vs DMSO; higher = more thermally stabilized by treatment). Conditions: HeLa; arsenate concentration 1 mM.
Procedure: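 Cellular thermal proteome profiling in HeLa cells treated with 1 mM arsenate for 1 h (DMSO pretreatment), heated to ten temperatures (37-66.3 °C). Soluble protein was quantified by TMT mass spectrometry relative to DMSO controls; the thermal stability score was transformed to a z-score; mean of n = 3 experiments.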
RAB5A (UniProt P20339) was tested, and the thermal stability z-score was -0.695.
JMY (UniProt Q8N9B5) showed a thermal stability z-score of -0.323.
For EIF2S3 (UniProt P41091), the thermal stability z-score was 1.34.
NCS1 (UniProt P62166) gave a thermal stability z-score of -0.124.
For TTLL12 (UniProt Q14166), the thermal stability z-score was -0.427.
KLF16 (UniProt Q9BXK1) gave a thermal stability z-score of 0.778.
TXN (UniProt P10599) showed a thermal stability z-score of 0.598.
TPD52L1 (UniProt Q16890) showed a thermal stability z-score of 0.237.
BPHL (UniProt Q86WA6) showed a thermal stability z-score of -1.21.
Work on ACTL6A (UniProt O96019) yielded a thermal stability z-score of -0.336.
Work on TPI1 (UniProt P60174) yielded a thermal stability z-score of -0.48.
RPS26 (UniProt P62854) was tested, and the thermal stability z-score was -0.743.
With GTF2H1 (UniProt P32780) the thermal stability z-score was -0.0702.
In the case of SLC7A1 (UniProt P30825), the thermal stability z-score is reported as -0.33.
TEX264 (UniProt Q9Y6I9) was tested, and the thermal stability z-score was -0.568.
YWHAH (UniProt Q04917) showed a thermal stability z-score of 0.138.
COMMD3 (UniProt Q9UBI1) gave a thermal stability z-score of -1.12.
In the case of BTN3A2 (UniProt P78410), the thermal stability z-score is reported as -1.15.
With WDR11 (UniProt Q9BZH6) the thermal stability z-score was -0.267.
Work on MARK3 (UniProt P27448) yielded a thermal stability z-score of -0.0953.
Work on DHRS7 (UniProt Q9Y394) yielded a thermal stability z-score of 0.437.
With TRMT112 (UniProt Q9UI30) the thermal stability z-score was -0.0169.
Work on TLE4 (UniProt Q04727) yielded a thermal stability z-score of 0.289.
CTNNBL1 (UniProt Q8WYA6) was tested, and the thermal stability z-score was -0.00699.
SIRT2 (UniProt Q8IXJ6) was tested, and the thermal stability z-score was -0.31.
ATP6AP2 (UniProt O75787) showed a thermal stability z-score of -0.366.
With ARHGAP28 (UniProt Q9P2N2) the thermal stability z-score was -0.0848.
RNF25 (UniProt Q96BH1) was tested, and the thermal stability z-score was -1.12.
With HLCS (UniProt P50747) the thermal stability z-score was -0.0791.
PIK3R4 (UniProt Q99570) gave a thermal stability z-score of 0.184.

What follows are targets tested with NC(=O)CCCCC1CCSS1 [lipoamide] in the same assay as above. Conditions: HeLa; lipoamide concentration 100 µM; arsenate co-treatment: 1 mM arsenate 1 h.
Procedure: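 Cellular thermal proteome profiling in HeLa cells. Cells were treated with 100 µM lipoamide for 1 h, with or without 1 mM arsenate for a further 1 h, then heated to ten temperatures (37-66.3 °C), and soluble protein was quantified by TMT mass spectrometry relative to 0.1% DMSO controls. The thermal stability score (sum of log2 fold changes minus the abundance score) was transformed to a z-score; mean of n = 3 experiments.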
In the case of RAB5A (UniProt P20339), the thermal stability z-score is reported as -0.751.
With JMY (UniProt Q8N9B5) the thermal stability z-score was -0.0736.
EIF2S3 (UniProt P41091) gave a thermal stability z-score of 0.159.
Work on NCS1 (UniProt P62166) yielded a thermal stability z-score of -0.202.
TTLL12 (UniProt Q14166) gave a thermal stability z-score of 1.14.
KLF16 (UniProt Q9BXK1) gave a thermal stability z-score of -0.384.
TXN (UniProt P10599) gave a thermal stability z-score of 0.913.
In the case of TPD52L1 (UniProt Q16890), the thermal stability z-score is reported as 0.471.
BPHL (UniProt Q86WA6) showed a thermal stability z-score of -0.428.
For ACTL6A (UniProt O96019), the thermal stability z-score was 2.1.
With TPI1 (UniProt P60174) the thermal stability z-score was 0.408.
In the case of RPS26 (UniProt P62854), the thermal stability z-score is reported as 0.0208.
With GTF2H1 (UniProt P32780) the thermal stability z-score was -0.0618.
With SLC7A1 (UniProt P30825) the thermal stability z-score was 0.364.
Work on TEX264 (UniProt Q9Y6I9) yielded a thermal stability z-score of -0.151.
For YWHAH (UniProt Q04917), the thermal stability z-score was 0.0489.
Work on COMMD3 (UniProt Q9UBI1) yielded a thermal stability z-score of -0.911.
BTN3A2 (UniProt P78410) showed a thermal stability z-score of 0.00462.
WDR11 (UniProt Q9BZH6) was tested, and the thermal stability z-score was -0.207.
MARK3 (UniProt P27448) gave a thermal stability z-score of -0.0834.
DHRS7 (UniProt Q9Y394) showed a thermal stability z-score of -0.365.
With TRMT112 (UniProt Q9UI30) the thermal stability z-score was 0.215.
TLE4 (UniProt Q04727) gave a thermal stability z-score of -0.201.
Target CTNNBL1 (UniProt Q8WYA6) has a thermal stability z-score of -0.0207.
Target SIRT2 (UniProt Q8IXJ6) has a thermal stability z-score of 0.594.
With ATP6AP2 (UniProt O75787) the thermal stability z-score was -2.63.
Target ARHGAP28 (UniProt Q9P2N2) has a thermal stability z-score of -0.114.
RNF25 (UniProt Q96BH1) gave a thermal stability z-score of -0.412.
Target HLCS (UniProt P50747) has a thermal stability z-score of -1.26.
PIK3R4 (UniProt Q99570) showed a thermal stability z-score of -0.524.

Same assay, conditions: HeLa; lipoamide concentration 100 µM; arsenate co-treatment: none
Work on RAB5A (UniProt P20339) yielded a thermal stability z-score of -0.744.
JMY (UniProt Q8N9B5) was tested, and the thermal stability z-score was -0.168.
Work on EIF2S3 (UniProt P41091) yielded a thermal stability z-score of -0.567.
NCS1 (UniProt P62166) showed a thermal stability z-score of -0.195.
For TTLL12 (UniProt Q14166), the thermal stability z-score was 0.696.
Target KLF16 (UniProt Q9BXK1) has a thermal stability z-score of 0.0662.
With TXN (UniProt P10599) the thermal stability z-score was 0.827.
TPD52L1 (UniProt Q16890) showed a thermal stability z-score of 0.545.
Target BPHL (UniProt Q86WA6) has a thermal stability z-score of -0.368.
Target ACTL6A (UniProt O96019) has a thermal stability z-score of 0.96.
TPI1 (UniProt P60174) gave a thermal stability z-score of 0.0882.
With RPS26 (UniProt P62854) the thermal stability z-score was 0.263.
GTF2H1 (UniProt P32780) gave a thermal stability z-score of -0.0128.
For SLC7A1 (UniProt P30825), the thermal stability z-score was -0.194.
TEX264 (UniProt Q9Y6I9) showed a thermal stability z-score of -0.929.
In the case of YWHAH (UniProt Q04917), the thermal stability z-score is reported as 0.303.
Work on COMMD3 (UniProt Q9UBI1) yielded a thermal stability z-score of -0.0897.
For BTN3A2 (UniProt P78410), the thermal stability z-score was 0.0294.
With WDR11 (UniProt Q9BZH6) the thermal stability z-score was -0.147.
For MARK3 (UniProt P27448), the thermal stability z-score was -0.0843.
Work on DHRS7 (UniProt Q9Y394) yielded a thermal stability z-score of -0.498.
Target TRMT112 (UniProt Q9UI30) has a thermal stability z-score of -0.0845.
In the case of TLE4 (UniProt Q04727), the thermal stability z-score is reported as 0.36.
CTNNBL1 (UniProt Q8WYA6) showed a thermal stability z-score of 0.00313.
In the case of SIRT2 (UniProt Q8IXJ6), the thermal stability z-score is reported as 0.653.
ATP6AP2 (UniProt O75787) was tested, and the thermal stability z-score was -2.3.
Work on ARHGAP28 (UniProt Q9P2N2) yielded a thermal stability z-score of -0.103.
RNF25 (UniProt Q96BH1) showed a thermal stability z-score of -0.217.
HLCS (UniProt P50747) showed a thermal stability z-score of -0.885.
In the case of PIK3R4 (UniProt Q99570), the thermal stability z-score is reported as -0.155.
